Results: patent US20100216706A1, “Ghrelin Protects Substantia Nigra Dopamine Neurons” (priority 2007, published 2010)
No end group written: not given here. *: point of attachment. Octanoyl = CCCCCCCC(=O)*

How the values were obtained:
Assay type in all cases: in vivo
[1] = test system: tyrosine hydroxylase (TH) mRNA; assay: TH mRNA expression in the midbrain (real-time PCR); settings: three hours after ghrelin injection (10 nmols), wild-type mice; saline 1.03±0.15
Experimental: Real-time PCR: RNA was extracted from the midbrain of 8 ghrelin-treated mice or 8 saline-treated mice using TRIzol® (Invitrogen, Carlsbad, Calif.) according to the manufacturer's instructions. cDNA was synthesized using the First-Strand cDNA synthesis kit (Amersham Biosciences), using a total of 3 μg of total RNA in 15 μl of total volume. Real-time PCR analysis of TH mRNA (SEQ ID NO. 4: 5′ […] 3′; SEQ ID NO. 5: 5′ […] 3′) was performed using iQ SYBR green supermix (Bio-Rad) and […] of each primer. Primers for 18S were used as controls. Measurements were performed on an iCycler (Bio-Rad).
Tyrosine hydroxylase (TH) is the rate limiting enzyme of dopamine biosynthesis. An experiment was performed to examine whether ghrelin alters TH mRNA expression in the midbrain.

[2] = test system: midbrain (SN-VTA) mitochondria; assay: Mitochondrial respiration in midbrain of ghrelin-treated rats (Clark-type oxygen electrode); settings: 30 nmol IP, 3 hours
Experimental: Mitochondrial respiration: The ability of ghrelin to promote mitochondrial respiration was examined in mitochondria isolated from midbrain of ghrelin-treated rats (30 nmol) three hours after injection. Rats were used as the mitochondrial yield after isolation is much higher than the yield from mice. Mitochondrial respiration was also examined in the pooled midbrain of UCP2 ko and wt mice (3 pooled brains), 3 hours after ghrelin injection (IP 30 nmol).
(§1) Mitochondria were pooled from the SN-VTA (4 animals=1, total n=4) and isolated by differential centrifugation. Because of the size of the tissue dissected, it was impossible to solely isolate only the SNc, and as such the results are reported as SN-VTA. Briefly, the SN-VTA was rapidly dissected and homogenized in isolation buffer (215 mM Mannitol, 75 mM sucrose, 0.1% fatty acid free BSA, 20 mM Hepes, 1 mM EGTA, pH adjusted to 7.2 with KOH). The homogenate was spun at 1300×g for 3 minutes. The supernatant was removed, and the pellet was resuspended with isolation buffer and spun again at 1300×g for 3 minutes. The 2 sets of supernatant from each sample were topped off with isolation buffer and spun at 13000×g for 10 minutes. The supernatant was discarded, and this step was repeated. After this second spin at 13000×g, the supernatant was discarded, and the pellets were resuspended with isolation buffer without EGTA and spun at 10000×g for 10 minutes. The final mitochondrial pellet was resuspended with 50 μl of isolation buffer without EGTA. Protein concentrations were determined with a BCA protein assay kit (Pierce, Rockford, Ill., USA).
(§2) Mitochondrial respirations were assessed using a Clark-type oxygen electrode (Hansatech Instruments, Norfolk, England) at 37° C. with pyruvate and malate (5 mM and 2.5 mM) as oxidative substrates in respiration buffer (215 mM Mannitol, 75 mM sucrose, 0.1% fatty acid free BSA, 20 mM Hepes, 2 mM MgC1, 2.5 mM KH2PO4, pH adjusted to 7.2 with KOH). Following the addition of ADP and oligomycin, UCP-mediated proton conductance was measured as increased fatty acid-induced respiration (Echtay et al., 2002), which was then compared to state 4 respiration induced by oligomycin, an inhibitor of H^+ transporting ATP synthase.
To determine whether ghrelin influences mitochondrial metabolism in the SNpc, mitochondrial respiration was measured in isolated […] from the midbrain of ghrelin-treated wild-type rats.
Ghrelin was administered intraperitoneally (30 nmol) and food was removed for the three hours injection period prior to sacrifice as ingested calorie load and the postprandial increase in glucose and insulin are known to reduce ghrelin effectiveness (Callahan et al., 2004, J Clin Endocrinol Metab 89: 1319-24; Cummings et al., 2006, Physiol Behav 89: 71-84). […] Subsequent blocking of the ATP synthase with oligomycin produced greater basal uncoupling after ghrelin (saline 31.4±1.4 vs ghrelin 50.4±1.5, p<0.0001; FIG. 4A). Palmitate (free fatty-acid) induced respiration was also elevated in ghrelin-treated rats (saline 125.0±3.8 vs ghrelin 185.3±9.3, p<0.001; FIG. 4A). Finally, ghrelin increased FCCP-driven respiration, an index of total uncoupling capacity of the inner mitochondrial membrane (FIG. 4A).

[3] = test system: UCP2-dependent mitochondrial respiration; assay: Uncoupled mitochondrial respiration in pooled midbrain of UCP2 wt or ko mice; settings: ghrelin IP 30 nmol, 3 hours
Experimental: Rats were used as the mitochondrial yield after isolation is much higher than the yield from mice. Mitochondrial respiration was also examined in the pooled midbrain of UCP2 ko and wt mice (3 pooled brains), 3 hours after ghrelin injection (IP 30 nmol).
as §1, §2
To test whether UCP2 is important in ghrelin-induced midbrain respiration, mitochondria were isolated from the midbrain of pooled UCP2 wt or ko mice treated with ghrelin or saline, and uncoupled respiration was measured.

ghrelin (GSS(Octanoyl)FLSPEHQRVQQRKESKKPPAKLQPR; listed as Homo sapiens) [28 amino acid acyl-peptide esterified with octanoic acid on Ser3; endogenous ligand of GHSR]
TH mRNA expression in the midbrain [1]: 2.86±0.46 | FCCP-driven respiration [2]: increased | Basal uncoupling after oligomycin ([2]; saline 31.4±1.4): 50.4±1.5 | Mitochondrial respiration after pyruvate and malate ([2]; saline 33.5±2.1): 49.5±1.9 | Palmitate induced respiration ([2]; saline 125.0±3.8): 185.3±9.3 | Mitochondrial respiration after ADP ([2]; saline 128.3±7.5): 185.2±17.7 | Basal uncoupled respiration after oligomycin, UCP2 ko mice ([3]; ko saline 34.2±2.6): 39.2±0.4 | Mitochondrial respiration after palmitate, UCP2 ko mice ([3]; ko saline 96.0±7.5): 109.7±2.9 | Basal uncoupled respiration after oligomycin, UCP2 wt mice ([3]; wt saline 32.7±1.6): 41.5±1.9 | Mitochondrial respiration after palmitate, UCP2 wt mice ([3]; wt saline 106.3±5.3): 134.5±4.5 | FCCP-driven respiration, UCP2 wt mice ([3]; wt saline 352±14.1): 472±12.7
